Assay results: PMC7158045 (BMC Plant Biology, 2020)

Experiments:
Assay in all cases: biochemical
[1] = biological target: T1, ZmDRIK1 (DROUGHT RESPONSIVE INACTIVE KINASE 1), kinase domain (Zea mays, UniProt C0P4K9); settings: read-out: dTm B, sheet ZmDRIK1-R187-S514;; DSF, Boltzmann fit, 0.1% DMSO
T1 construct: gene ZEAMMB73_Zm00001d028770; ZmDRIK1-KD R187-S514 (kinase domain)
T1 sequence (C0P4K9 187-514): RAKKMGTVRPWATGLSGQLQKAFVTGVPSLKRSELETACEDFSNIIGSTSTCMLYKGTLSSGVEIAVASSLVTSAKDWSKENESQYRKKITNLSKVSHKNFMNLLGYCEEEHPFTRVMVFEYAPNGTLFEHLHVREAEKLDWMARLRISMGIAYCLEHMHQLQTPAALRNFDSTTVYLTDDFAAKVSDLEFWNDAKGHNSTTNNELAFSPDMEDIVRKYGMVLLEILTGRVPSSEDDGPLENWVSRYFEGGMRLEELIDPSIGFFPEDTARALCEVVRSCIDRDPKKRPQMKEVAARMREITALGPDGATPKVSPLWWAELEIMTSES

ZmDRIK1-K217-P492 = biological target: T2, ZmDRIK1-K217-P492 (Zea mays, UniProt C0P4K9); settings: read-out: dTm B, sheet ZmDRIK1-K217-P492;; DSF, Boltzmann fit, 0.1% DMSO
T2 construct: kinase domain, K217-P492
T2 sequence (C0P4K9 1-514): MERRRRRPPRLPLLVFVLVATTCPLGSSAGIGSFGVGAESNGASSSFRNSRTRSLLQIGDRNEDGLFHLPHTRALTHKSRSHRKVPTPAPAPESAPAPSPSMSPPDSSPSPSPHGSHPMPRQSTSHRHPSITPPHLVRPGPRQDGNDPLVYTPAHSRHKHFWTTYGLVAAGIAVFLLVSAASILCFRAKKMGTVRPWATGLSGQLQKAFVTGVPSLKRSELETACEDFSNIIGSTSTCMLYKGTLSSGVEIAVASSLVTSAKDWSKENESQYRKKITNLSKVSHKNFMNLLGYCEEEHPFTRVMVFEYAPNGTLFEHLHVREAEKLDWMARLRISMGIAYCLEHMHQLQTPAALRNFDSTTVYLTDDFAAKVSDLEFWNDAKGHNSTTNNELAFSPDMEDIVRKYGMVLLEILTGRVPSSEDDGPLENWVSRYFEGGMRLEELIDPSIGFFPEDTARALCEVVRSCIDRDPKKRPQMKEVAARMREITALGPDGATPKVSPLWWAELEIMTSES

ZmDRIK1-K217-S514 = biological target: T3, ZmDRIK1-K217-S514 (Zea mays, UniProt C0P4K9); settings: read-out: dTm B, sheet ZmDRIK1-K217-S514;; DSF, Boltzmann fit, 0.1% DMSO
T3 construct: kinase domain, K217-S514
T3 sequence (C0P4K9 1-514): T2 sequence (C0P4K9 1-514)

ZmDRIK1-R187-P492 = biological target: T4, ZmDRIK1-R187-P492 (Zea mays, UniProt C0P4K9); settings: read-out: dTm B, DSF, Boltzmann fit, 0.1% DMSO
T4 construct: kinase domain, R187-P492
T4 sequence (C0P4K9 1-514): T2 sequence (C0P4K9 1-514)

Compound	ΔTm at 10 µM [1]	ΔTm at 10 µM (ZmDRIK1-K217-P492)	ΔTm at 10 µM (ZmDRIK1-K217-S514)	ΔTm at 10 µM (ZmDRIK1-R187-P492)
C=CC(=O)Nc1ccc2ncnc(Nc3ccc(OCc4cccc(F)c4)c(Cl)c3)c2c1 [AST-1306]	-7.98 °C	-1.48 °C	-1.18 °C	-5.11 °C
C=CC(=O)N1CCC[C@@H](n2nc(-c3ccc(Oc4ccccc4)cc3)c3c(N)ncnc32)C1 [Ibrutinib (PCI-32765)]	-0.597 °C	-1.14 °C	-0.359 °C	-0.476 °C
CNC(=O)c1ccc(C)c(-n2c(C)cc(OCc3ccc(F)cc3F)c(Br)c2=O)c1 [PH-797804]	-0.839 °C	-0.248 °C	-0.43 °C	-0.28 °C
O=C(NCCO)c1cccc(-c2cc(Nc3ccc(OC(F)(F)F)cc3)ncn2)c1 [GNF-5]	-0.0553 °C	-0.507 °C	0.543 °C	1.16 °C
C#Cc1cccc(Nc2ncnc3cc(OC)c(OCCCCCCC(=O)NO)cc23)c1 [CUDC-101]	-0.684 °C	-1.03 °C	-0.263 °C	-0.186 °C
Cc1ccc(-n2nc(C(C)(C)C)cc2NC(=O)Nc2ccc(OCCN3CCOCC3)c3ccccc23)cc1 [BIRB 796 (Doramapimod)]	0.000298 °C	-0.873 °C	-0.405 °C	-0.248 °C
NC(=O)c1ccc(N(C(N)=O)c2c(F)cccc2F)nc1-c1ccc(F)cc1F [VX-702]	-0.444 °C	-0.792 °C	-0.374 °C	-0.499 °C
O=c1c(O)c(-c2ccc(O)c(O)c2)oc2cc(O)cc(O)c12 [Quercetin]	-0.63 °C	-1.11 °C	-0.0338 °C	-0.357 °C
Cc1cc(O)c2c(c1)C(=O)c1cccc(O)c1C2=O [Chrysophanic Acid]	-0.414 °C	-1.17 °C	-0.229 °C	-0.205 °C
COc1ccc(COc2cc3oc(=O)c4cc(C(C)O)ccc4c3cc2OC)cc1 (centres unmarked) [Palomid 529 (P529)]	-0.623 °C	-0.76 °C	-0.134 °C	-0.229 °C
CCN(CCO)CCCOc1ccc2c(Nc3cc(CC(=O)Nc4cccc(F)c4)[nH]n3)ncnc2c1 [Barasertib (AZD1152-HQPA)]	-1.11 °C	-0.927 °C	-0.253 °C	-0.129 °C
C=CC(=O)Nc1cccc(Nc2nc(Nc3ccc(OCCOC)cc3)ncc2F)c1 [AVL-292]	-0.365 °C	0.368 °C	0.698 °C	1.32 °C
O=C1NC(=O)/C(=C/c2ccc(-c3ccc(F)cc3O)o2)S1 [AS-252424]	0.389 °C	1.37 °C	1.39 °C	0.884 °C
O=C(O)c1ccc(-c2c[nH]c3ncc(-c4ccccc4)cc23)cc1C1CCCC1 [GSK650394]	-0.785 °C	-1.03 °C	-0.353 °C	-0.485 °C
CN[C@@H]1C[C@H]2O[C@@](C)([C@@H]1OC)n1c3ccccc3c3c4c(c5c6ccccc6n2c5c31)C(=O)NC4 [Staurosporine]	-0.601 °C	-0.631 °C	-0.232 °C	-0.154 °C
O=C(c1ccc(Nc2nccc(-c3cc4ccccc4s3)n2)cc1)N1CCC(N2CCCC2)CC1 [IKK-16 (IKK Inhibitor VII)]	-0.0967 °C	-0.786 °C	0.121 °C	0.0892 °C
N#Cc1c(NC(=O)c2cccc3ccccc23)sc2c1CCCC2 [JNK Inhibitor IX]	-1.05 °C	-1.09 °C	-0.601 °C	-0.365 °C
